The subject of one assay is HCT 116. In words: Anti-neoplasmic activity against xenograft in hairless mice. Type of assay: in vivo. The conditions noted are these: series 8, i.p., day 23. On the procedure: (§1) For this, we selected 26 bis-acridines, mainly on the basis of the cytotoxic activity. We performed 34 series of experiments evaluating the anti-neoplasmic activity on xenografts in hairless mice against eleven neoplasms of human origin from the determination of the cytotoxic activity of bis-acridines (table 4). The tumours were injected subcutaneously to hairless mice of 5-weeks, female Crl:Nu-Foxnlnu, at a rate of 5×10^6 cells per mouse. After attaining a tumour of about 100 mm^3 or 200 mm^3 in depending on the neoplasm and its take this was 8 or even 30 days, and began therapy. On the day therapy was initiated, we randomised the animals and divided them into groups. Test groups were from 6 to 8 animals, and controls had from 8 to 14 animals. Each compound was tested at three differentiated doses.
(§2) The preparations were administered intravenously (i.v.) twice weekly for 4 weeks (thrice weekly for rapidly growing neoplasms). In several series, we used intraperitoneally (i.p.) administration in the same scheme. […] The therapeutic efficacy of the tested formulations was evaluated by measuring tumour size (length and width measurements of the tumour on the basis of the calculated tumour volume). Tumours were measured twice weekly for a period of about 30 days for fast-growing neoplasms, as well as about 60 days for the slow-growing neoplasms. The tumour volume in the treated groups compared with the control group. On this basis, inhibition of tumour growth was calculated using the following formula: Tumour growth inhibition TGI [%]=100−(ΔVT/ΔVC×100) Where ΔVT—is mean the tumour volume in animals in the group treated at the given day of treatment, minus the mean tumour volume in animals at the date of commencement of therapy. ΔVC is mean tumour volume in animals in the control group on a given day of treatment minus the average tumour volume of animals on the date of commencement of therapy. The results of the tests of anti-neoplasmic activity conducted in xenografts of human-origin neoplasms in mice are shown in Table 5.
(§3) The result above was accepted only in the case that the dose administered in all animals or more than half of the animals that survived to the end of the experiment. In addition, the evaluation was the day that the administration of the preparation was already completed: for the fast-growing neoplasms (eg. HCT116) this was in the days from 15 to 26, while for slow-growing neoplasms (eg. Panc 1) on a day from 34 to 60. […] In addition, the maximum inhibition of neoplasms could be identified in the day, in which there were no factors that could change the value TGI value.
(§4) Such factors may include: a significant decrease in body weight, the appearance of observable toxaemia, excessive rate of tumour growth: tumours in excess of 2000 mm^3 and all animals alive on that day.

The next assay concerns DU-145. Kind of assay: Cytotoxic activity in vitro, SRB. Type of assay: cell-based, human. Here is the method: (§5) Cytotoxic activity tests in-vitro. A measure of the cytotoxic activity of bis-acridines are the EC50 (concentration of studied compounds at which 50% inhibition of proliferation of tumorous is observed) of the evaluated compounds that inhibit the growth of 50% of cells in relation to a control. The cytotoxic activity of the compounds was determined using SRB, recommended by the US National Cancer Institute (USA). As the spectrum of 13 human origin neoplasms in bis-acridine screening studies, we used the following: HT 29 [CRC], HCT 116 [CRC], H 460 [lung cancer], MDA MB 231 [breast cancer], MCF-7 [breast cancer], UM UC3 [bladder cancer], PC 3 [prostate cancer], DU 145 [ prostate cancer], Panc-1 [pancreatic cancer], Mia Pa Ca 2 [pancreatic cancer], BXPC 3 [pancreatic cancer], AsPC1 [pancreatic cancer], Capan-2 [pancreatic cancer]. […] The DU-145 results were substantially a basis for selecting compounds and neoplasms for screening. The next neoplasms most sensitive to the cytotoxic activity of bis-acridines was the CRC HCT-116, as well as breast cancer MBA-MB-231. […] The cytotoxic activity of the remaining bis-acridines is significant or high (EC50 in the range from 1 to 0.04 μM). […] Panc-1, MiaPaCa-2 and Capan-2 are more sensitive, whereas for AsPC-1 and BxPC-3 this activity is at least an order of magnitude smaller.

The subject of the next assay is HCT-116. Kind of assay: Cytotoxic activity in vitro, SRB. The assay is classed as cell-based, human. Here is the method:
as §5

For a further assay, the system named is UM-UC-3. Kind of assay: Cytotoxic activity in vitro, SRB. Type of assay: cell-based, human. On the procedure:
as §5

The test system of another assay is HT-29. Kind of assay: Cytotoxic activity in vitro, SRB. Type of assay: cell-based, human. On the procedure: as §5
Another assay relates to H-460. Kind of assay: Cytotoxic activity in vitro, SRB. Type of assay: cell-based, human. On the procedure:
as §5

For another assay, the system named is PANC-1. In words: Cytotoxic activity in vitro, SRB. Type of assay: cell-based, human. Here is the method:
as §5

For a further assay, the system named is BXPC 3. Kind of assay: Anti-neoplasmic activity against xenograft in hairless mice. Type of assay: in vivo. On the procedure:
as §1, §2, §3, §4

The subject of the next assay is Mia Pa Ca 2. Described as above. To be noted: series 28, i.v., single 5 mg/kg, total 28 mg/kg, day 33. The assay is classed as in vivo. On the procedure: as §1, §2, §3, §4
For the next assay, the system named is PANC 1. The assay is described as above. Type of assay: in vivo. On the procedure: as §1, §2, §3, §4
The next assay concerns AsPC-1. In words: Cytotoxic activity in vitro, SRB. Type of assay: cell-based, human. On the procedure:
as §5

The next assay has as its system MDA-MB-231. In words: Cytotoxic activity in vitro, SRB. Type of assay: cell-based, human. Here is the method:
as §5

The subject of a further assay is Capan-2. Kind of assay: Cytotoxic activity in vitro, SRB. Type of assay: cell-based, human. On the procedure:
as §5

A further assay has as its system MiaPaCa-2. Kind of assay: Cytotoxic activity in vitro, SRB. Type of assay: cell-based, human. On the procedure:
as §5

For another assay, the system named is BxPC-3. In words: Cytotoxic activity in vitro, SRB. Type of assay: cell-based, human. Here is the method: as §5
The next assay deals with MCF-7. Kind of assay: Cytotoxic activity in vitro, SRB. The assay is classed as cell-based, human. On the procedure: as §5
The next assay relates to PC-3. Kind of assay: Cytotoxic activity in vitro, SRB. The assay is classed as cell-based, human. On the procedure: as §5
In the next assay the test system is MDA MB 231. In words: Anti-neoplasmic activity against xenograft in hairless mice. The assay is classed as in vivo. The conditions noted are these: series 34, i.v., single 15 mg/kg, total 120 mg/kg, day 32. On the procedure: as §1, §2, §3, §4

The results in this text go back to patent US10202349B2, “Asymmetric bis-acridines with antitumour activity and their uses” (POLITECHNIKA GDAŃSKA, priority 2015, dated 2019).

Consider `Cc1ccc([N+](=O)[O-])c2c(NCCCN(C)CCCNc3ccc([N+](=O)[O-])c4[nH]c5ccccc5c(=O)c34)c3ccccc3nc12` [C-2029, 9-{N-[(4-nitro-9(10H)acridono-1-yl)aminopropyl]-N-methylaminopropylamino}-4′-methyl-1′-nitroacridine], for which the “TGI [%] [100 − (ΔVT/ΔVC × 100]” value in the assay with HCT 116 (single 20 mg/kg, total 100 mg/kg) was determined as 52%. The EC50 in the assay on DU-145 was determined as 44 nM; in the assay on HCT-116 it was 74 nM; in the assay on UM-UC-3 it was 54 nM; in the assay with HT-29, 230 nM; in the assay with H-460, 55 nM; with PANC-1, 110 nM.
Take `Cc1ccc([N+](=O)[O-])c2c(NCCCN(C)CCCNc3ccc4ncn5c6ccc(O)cc6c(=O)c3c45)c3ccccc3nc12` [C-2045, 9-{N-[(8-hydroxyimidazo[4,5,1-de]-acridin-6-on-5-yl)aminopropyl]-N-methylaminopropylamino}-4′-methyl-1′-nitroacridine]: the “TGI [%] [100 − (ΔVT/ΔVC × 100]” value with BXPC 3 (series 25, i.p., single 10 mg/kg, total 80 mg/kg, day 32) is listed as 77%; with Mia Pa Ca 2 it was 55%; in the assay on PANC 1 (series 20, i.v., single 10 mg/kg, total 40 mg/kg, day 32) it was 67%; with PANC 1 (series 24, i.v., single 2 mg/kg, total 16 mg/kg, day 44), 82%; in the assay on PANC 1 (series 26, i.v., single 10 mg/kg, total 80 mg/kg, day 56) it was 64%; in the assay with PANC 1 (series 29, i.v., single 5 mg/kg, total 25 mg/kg, day 36) it was 25%. Moreover, the EC50 was found to be 152 nM with AsPC-1; 52 nM in the assay on MDA-MB-231; 52 nM with Capan-2; 59 nM in the assay with DU-145; 59 nM in the assay with MiaPaCa-2; 40 nM in the assay with HCT-116. Besides, the EC50 is 216 nM with PANC-1 and 169 nM with BxPC-3.
Regarding `O=c1c2ccccc2[nH]c2c([N+](=O)[O-])ccc(NCCNCCNCCNc3c4ccccc4nc4cccc([N+](=O)[O-])c34)c12` [C-2033, 9-[N-(4-nitro-9(10H)acridono-1-yl)-aminoethylaminoethylamino-ethylamino]-1′-nitroacridine], the “TGI [%] [100 − (ΔVT/ΔVC × 100]” value with HCT 116 (single 3 mg/kg, total 21 mg/kg) turned out to be 37%. Moreover, the 50% effective concentration (EC50) in the assay on MDA-MB-231 came to 32 nM; in the assay with MCF-7 it was 72 nM; in the assay on DU-145 it was 10 nM; in the assay on MiaPaCa-2, 48 nM; in the assay on HCT-116 it was 19 nM; with UM-UC-3, 15 nM. Moreover, the EC50 was found to be 38 nM with PANC-1 and 32 nM with PC-3.
In the case of `Cc1ccc([N+](=O)[O-])c2c(NCCCN(C)CCCNc3ccc4ncn5c6ccccc6c(=O)c3c45)c3ccccc3nc12` [C-2053, 9-{N-[(imidazo[4,5,1-de]-acridin-6-on-5-yl)aminopropyl]-N-methylaminopropylamino}-4′-methyl-1′-nitroacridine], the “TGI [%] [100 − (ΔVT/ΔVC × 100]” value with BXPC 3 (series 25, i.v., single 20 mg/kg, total 160 mg/kg, day 36) is recorded as 84%; in the assay with BXPC 3 (series 33, i.v., single 20 mg/kg, total 160 mg/kg, day 32, *at least half of animals did not survive) it was 47* %; in the assay on PANC 1 (series 24, i.v., single 15 mg/kg, total 120 mg/kg, day 37) it was 64%; in the assay with PANC 1 (series 26, i.v., single 20 mg/kg, total 160 mg/kg, day 56) it was 69%; with MDA MB 231, 62%. Also, the EC50 stood at 176 nM in the assay on AsPC-1; 65 nM in the assay with DU-145; 87 nM in the assay with MiaPaCa-2; 65 nM in the assay with HCT-116; 98 nM with PANC-1; 224 nM with BxPC-3.
For the molecule `CN(CCCNc1c2ccccc2nc2cccc([N+](=O)[O-])c12)CCCNc1ccc2ncn3c4ccc(O)cc4c(=O)c1c23` [C-2042, 9-{N-[(8-hydroxyimidazo[4,5,1-de]-acridin-6-on-5-yl)aminopropyl]-N-methylaminopropylamino}-1′-nitroacridine], in the assay with PANC 1 (series 17, i.v., single 4 mg/kg, total 20 mg/kg, day 39, *at least half of animals did not survive), the “TGI [%] [100 − (ΔVT/ΔVC × 100]” value is reported as 33* %. Further, the EC50 was determined as 82 nM with AsPC-1; 18 nM in the assay with MDA-MB-231; 29 nM with Capan-2; 49 nM with MCF-7; 21 nM with DU-145; 47 nM in the assay on MiaPaCa-2. The values for the EC50 in the assay on HCT-116, with PANC-1 and in the assay on BxPC-3 were 18 nM, 55 nM and 81 nM, respectively.
